Laboratory results as given in BindingDB's records for doi:10.1021/acs.jmedchem.6b01578 (University of Bologna, 2017).
Several values for one entry are separate records, joined by “and”; a condition that tells them apart may be missing. Identical values can stand only once.

Experiment: Agonist activity at recombinant human CB1 receptor expressed in CHO-K1 cells assessed as increase in cAMP accumulation after 20 mins by HTRF assay

SMILES	EC50
COc1cc(OC(=O)NCCCCN2CCN(c3cccc(Cl)c3Cl)CC2)ccc1-c1ccccc1	220 nM and 219 nM
CCCCCCC(C)(C)c1ccc2c(c1)OC(C)(C)[C@@H]1CCC(CO)=C[C@@H]21	1.2 nM
CCCC(C)(C)c1ccc2c(c1)OC(C)(C)[C@@H]1CCC(C)=C[C@@H]21	667 nM
COc1ccccc1N1CCN(CCCCNC(=O)Oc2ccc3c(c2)[nH]c2ccccc23)CC1	2300 nM and 2340 nM
CCCCCc1cc(O)c2c(c1)OC(C)(C)[C@@H]1CCC(C)=C[C@@H]21 [(10R,10aR)-6,6,9-Trimethyl-3-pentyl-6a,7,8,10a-tetrahydro-6H-benzo[c]chromen-1-ol]	10 nM
